In PMC12471299, “Secondary Metabolites of the Marine Sponge-Derived Fungus Aspergillus subramanianii 1901NT-1.40.2 and Their Antimicrobial and Anticancer Activities” (Marine Drugs, 2025):
Read-outs that look alike come from different tables or passages of the source.

How the values were obtained:
[1] = tested on: MCF-7 breast cancer cells; assay: Cell viability assay (MTT); type: cell-based, human
From the text: (§1) Rat cardiomyocyte H9c2 cells were kindly provided by Prof. Dr. Gunhild von Amsberg from the Martini-Klinik Prostate Cancer Center, University Hospital Hamburg-Eppendorf, Hamburg, Germany. The human HaCaT keratinocyte cell line was kindly provided by Prof. N. Fusenig (Cancer Research Centre, Heidelberg, Germany). Non-cancerous human breast epithelial MCF-10A cells were kindly provided by Dr. Irina Zhitnyak (N. N. Blokhin National Medical Research Center of Oncology, Moscow, Russia). Human breast cancer MCF-7 HTB-22 and MDA-MB-231 cells were obtained from the ATTC (Manassas, VA, USA).
(§2) H9c2 and HaCaT cells were cultured in DMEM with 10% fetal bovine serum and 1% penicillin/streptomycin (BioloT, St. Petersburg, Russia). MCF-7 and MDA-MB-231 cells were cultured in MEM (BioloT, St. Petersburg, Russia) with 10% fetal bovine serum (FBS) and 1% penicillin/streptomycin (BioloT, St. Petersburg, Russia). MCF 10A cells were cultured in DMEM F12 medium (BioloT, St. Petersburg, Russia) supplemented with 20% FBS, 20 ng/mL hrEGF (Sci-Store, Moscow, Russia), and 1% penicillin/streptomycin (BioloT, St. Petersburg, Russia). All cells were cultured at 37 °C in a humidified atmosphere containing 5% CO2.
(§3) H9c2 cells were seeded at a concentration of 3 × 10^3 cells/well. MCF-10A, MCF-7, and MDA-MB-231 cells were seeded at 5 × 10^3 cells/well, and HaCaT cells were seeded at 1 × 10^4 cells/well. The experiments were initiated after 24 h.
(§4) Compounds at concentrations up to 100 µM were added to the wells for 24h or 48 h, and the viability of the cells was measured using an MTT (3-(4,5-dimethylthiazol-2-yl)-2,5-diphenyltetrazolium bromide) assay, which was performed according to the manufacturer’s instructions (Sigma-Aldrich, Munich, Germany). […] DMSO was used as a control. The results are presented as percentages of the control data.

[2] = tested on: MDA-MB-231 breast cancer cells; assay: Cell viability assay (MTT); type: cell-based, human; details: for IC50: read-out: Cytotoxicity IC50
From the text: as §1, §2, §3, §4

[3] = tested on: MCF-10A breast epithelial cells; assay: Cell viability assay (MTT); type: cell-based, human; details: MCF10A
From the text: as §1, §2, §3, §4

[4] = tested on: HaCaT keratinocytes; assay: Cell viability assay (MTT); type: cell-based, human; details: for IC50: read-out: Cytotoxicity IC50
From the text: as §1, §2, §3, §4

[5] = tested on: non-small cell lung cancer NCIH460 cells; details: cited from earlier work
[6] = tested on: breast cancer MCF-7 cells; details: cited from earlier work
[7] = tested on: H9c2 cardiomyocytes; assay: Cell viability assay (MTT); type: cell-based, rat; details: for IC50: read-out: Cytotoxicity IC50
From the text: as §1, §2, §3, §4

[8] = tested on: Escherichia coli VKPM (B-7935); assay: Antimicrobial assay, growth inhibition (optical density); type: cell-based
How it was run: (§5)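 Compound tested from 100 µM downward; 1% DMSO in PBS as negative control. Planktonic growth read as OD at 620 nm after 18 h; 18 h biofilm formation quantified with MTT at 570 nm. Values as percent of control, reported as minimal concentration giving 50% reduction (MIC50).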

[9] = tested on: Staphylococcus aureus ATCC 21027; assay: as above; type: cell-based
How it was run: as §5

[10] = tested on: Candida albicans KMM 455; assay: as above; type: cell-based; details: C. albicans, 18 h
How it was run: as §5

[11] = tested on: CNS glioma SF-268 cells; details: cited from earlier work
[12] = tested on: Escherichia coli VKPM (B-7935); assay: Biofilm formation assay (MTT); type: cell-based
How it was run: (§6)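 Strains were precultured on Mueller Hinton agar at 37 °C for 24 h, then exposed to compound at up to 100 µM. Growth was read as OD620 after 18 h; 18 h biofilm formation was quantified with MTT at OD570. Values are MIC50, the lowest concentration cutting growth or biofilm by 50% versus 1% DMSO/PBS control.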

[13] = tested on: Staphylococcus aureus ATCC 21027; assay: Biofilm formation assay (MTT); type: cell-based
How it was run: as §5

[14] = tested on: Candida albicans KMM 455; assay: Biofilm formation assay (MTT); type: cell-based
How it was run: as §6

## asterredione [Compound 9]
[1]; MCF-7, 24 h, read-out: Cytotoxicity IC50
  IC50: 51.3 ± 2.6 µM
[1]; MCF-7, 48 h, 1.0 µM
  cell viability: 97.8 ± 1.1 % of control
[1]; MCF-7, 48 h, 10.0 µM
  cell viability: 78.6 ± 7.6 % of control
[1]; MCF-7, 48 h, 100.0 µM
  cell viability: 21.2 ± 6.6 % of control
[1]; MCF-7, 48 h, read-out: Cytotoxicity IC50
  IC50: 55.1 ± 3.9 µM
[1]; MCF-7, time not stated, read-out: IC50, viability
  IC50: ~50 µM
[2]; MDA-MB-231, 24 h, 1.0 µM
  cell viability: 96.3 ± 3.2 % of control
[2]; MDA-MB-231, 24 h, 10.0 µM
  cell viability: 106.3 ± 9.9 % of control
[2]; MDA-MB-231, 24 h, 100.0 µM
  cell viability: 82.5 ± 1.3 % of control
[2]; MDA-MB-231, 24 h
  IC50: > 100 µM
[2]; MDA-MB-231, 48 h, 1.0 µM
  cell viability: 103.2 ± 0.9 % of control
[2]; MDA-MB-231, 48 h, 10.0 µM
  cell viability: 90.5 ± 2.7 % of control
[2]; MDA-MB-231, 48 h, 100.0 µM
  cell viability: 52.9 ± 3.4 % of control
[2]; MDA-MB-231, 48 h
  IC50: ≥ 100 µM
[3]; 24 h, 1.0 µM
  cell viability: 100.7 ± 0.9 % of control
[3]; 24 h, 10.0 µM
  cell viability: 97.5 ± 3.5 % of control
[3]; 24 h, 100.0 µM
  cell viability: 66.3 ± 3.6 % of control
[3]; 24 h, read-out: Cytotoxicity IC50
  IC50: > 100 µM
[3]; 48 h, 1.0 µM
  cell viability: 96.7 ± 5.1 % of control
[3]; 48 h, 10.0 µM
  cell viability: 79.4 ± 4.3 % of control
[3]; 48 h, 100.0 µM
  cell viability: 61.5 ± 1.9 % of control
[3]; 48 h, read-out: Cytotoxicity IC50
  IC50: > 100 µM
[3]; time not stated, read-out: half-maximal concentration (IC50), viability
  IC50: > 100 µM
[4]; 100 µM for 48 h
  decrease of viability: 23%
[4]; 24 h, 1.0 µM
  cell viability: 88.7 ± 3.0 % of control
[4]; 24 h, 10.0 µM
  cell viability: 79.2 ± 2.1 % of control
[4]; 24 h, 100.0 µM
  cell viability: 62.0 ± 6.9 % of control
[4]; 24 h
  IC50: > 100 µM
[4]; 48 h, 1.0 µM
  cell viability: 99.5 ± 2.3 % of control
[4]; 48 h, 10.0 µM
  cell viability: 92.6 ± 11.2 % of control
[4]; 48 h, 100.0 µM
  cell viability: 77.1 ± 1.5 % of control
[4]; 48 h
  IC50: > 100 µM
[4]; at 10 µM
  toxicity: not toxic
[5]
  cytotoxic activity: moderate cytotoxic activity
[6]
  cytotoxic activity: moderate cytotoxic activity
[7]; H9c2, 100 µM for 48 h
  decrease of viability: 38%
[7]; H9c2, 24 h, 1.0 µM
  cell viability: 101.1 ± 6.6 % of control
[7]; H9c2, 24 h, 10.0 µM
  cell viability: 101.7 ± 3.2 % of control
[7]; H9c2, 24 h, 100.0 µM
  cell viability: 73.1 ± 5.1 % of control
[7]; H9c2, 24 h
  IC50: > 100 µM
[7]; H9c2, 48 h, 1.0 µM
  cell viability: 90.2 ± 7.1 % of control
[7]; H9c2, 48 h, 10.0 µM
  cell viability: 93.0 ± 10.4 % of control
[7]; H9c2, 48 h, 100.0 µM
  cell viability: 62.2 ± 10.4 % of control
[7]; H9c2, 48 h
  IC50: > 100 µM
[7]; H9c2, at 10 µM
  toxicity: not toxic
[8]; E. coli, 18 h
  MIC50: >100 µM
[8]; at / up to 100 µM
  effect on E. coli growth: did not affect
[9]; S. aureus, 18 h
  MIC50: >100 µM
[9]; at / up to 100 µM
  effect on S. aureus growth: did not affect
[10]
  MIC50: >100 µM
[11]
  cytotoxic activity: moderate cytotoxic activity
[12]; E. coli, 18 h
  Biofilm formation, MIC50: >100 µM
[12]; at / up to 100 µM
  effect on E. coli biofilm formation: did not affect
[13]; S. aureus, 18 h
  Biofilm formation, MIC50: >100 µM
[13]; at / up to 100 µM
  effect on S. aureus biofilm formation: did not affect
[14]; C. albicans, 18 h
  Biofilm formation, MIC50: >100 µM
[14]; at 100 µM
  prevention of C. albicans biofilm formation: 41.18 ± 4.91%
